The text below walks through data of patent publication US7943577B2, “Alpha-fetoprotein peptides and uses thereof” (Albany Medical College, priority 2001, dated 2011).

In experiment [1] the test system is PC3 prostate carcinoma cells. Put plainly: PCNA and nuclear ERα immunoblot, PC3. Format: cell-based, human. More on the design: key to Total Nuclear Estrogen Receptor / PCNA accumulation: “+” indicates increase; “−” indicates decrease; “NC” indicates no change. The protocol:
(§1) Cell lines. Glioma cells: C6 cells were cultured in F-12K medium with 18% FBS. F98 cells and GL261 cells were cultured in DMEM with 10% FBS. Head and neck cancer: 22B cells were cultured in DMEM with 10% FBS. Papillary thyroid cancers: BHP2-7 cells and BHP18-21 cells were cultured in DMEM with 10% FBS. Small cell lung cancer: HTB184 cells were cultured in RPMI medium with 10% FBS. Breast cancers: MCF-7 cells were cultured in DMEM (w/o phenol red) with 5% FBS and MDA-MB cells were cultured in DMEM with 10% FBS. Colon cancer: Colo 205 cells were cultured in RPMI medium with 10% FBS. Ovarian cancer: OVCAR-3 cells were culture in RPMI medium with 20% FBS supplemented with insulin. Prostate cancers: LNCaP cells were cultured in RPMI medium with 10% FBS. DU145 cells were cultured in MEM with 10% FBS and PC3 cells were cultured in F-12 medium with 10% FBS. Cervical cancer: HeLa cells were cultured in MEM with 10% FBS. Melanoma cells were cultured in DMEM with 10% FBS. These conditions were determined to maintain cellular production of proliferating cell nuclear antigen (PCNA) at high levels immediately prior to study of AFP-related peptide. All cell cultures were maintained in a 5% CO2/95% O2 incubator at 37 C. Cell fractionation. Fractionation in a microfuge and preparation of nucleoproteins was by our previously reported methods (1-3). Nuclear extracts were prepared by resuspension of the crude nuclei in high salt buffer (hypotonic buffer with 420 mM NaCl and 20% glycerol) at 4° C. with rocking for 1 hr. The supernatants were collected after subsequent centrifugation at 4° C. and 13,000 rpm for 10 min. Immunoblotting. The techniques are standard and have been described in a number of our publications (1-3). In brief, nucleoproteins were separated on discontinuous SDS-PAGE and then transferred by electroblotting to nitocellulose membranes (Millipore, Bedford, Mass.). […] Immunoreactive proteins are detected by chemiluminescence.

For experiment [2], the system named is cancer cell lines. The experiment in a line: PCNA and nuclear ERα immunoblot, summary over cancer cell lines. To be noted: E2 1×10^−9 M. Format: cell-based. The protocol: as §1
For orientation: In western blotting, separated proteins are transferred to a membrane and probed.

Experiment [3] concerns MAPK activation and ER phosphorylation in T47-D human breast cancer cells. The experiment in a line: E2-induced MAPK activation and ER serine-118 phosphorylation in T47-D cells. In kind it is cell-based. To be noted: E2 10^−8M, 60 m. How it is done:
Cells were treated with E2 for 60 m and lysed. The nuclear fraction was isolated, separated by gel electrophoresis of the nucleoproteins, and the proteins were transferred to membranes. The resolved nucleoproteins were immunoblotted with anti-phosphoMAPK (activated MAPK, pMAPK) and anti-phosphoER (pER.) The anti-pER is directed to ER's serine-118. The peptides of the invention, at, e.g., […], blocks MAPK E2 activation and E2-induced ER phosphorylation. However, there is no enhancement by E2 of either MAPK activation or ER phosphorylation when E2 is added with the peptides of the invention. It has been shown by Lobehofer et al. (Cell Growth Differ 11: 99-110 (2000)) that pharmacological inhibition of MAPK prevents E2-induced mitogenesis in human breast cancer cell line (MCF-7). Therefore, the peptides of the invention block ER phosphorylation, a step which is required for full transcriptional activity of ER, and as such, the peptides of the invention are useful anti-cancer, e.g., breast cancer, agents.
The inventors, while not wishing to be limited to a particular method or theory of how the present invention operates, have performed experiments using T-47D cells cultured with estradiol plus peptides of the invention, estradiol alone, peptide alone, or no additives (control). […] There was a corresponding reduction in the phosphorylation of serine 118 on the estrogen receptor. […]

Experiment [4] deals with colon cancer (Colo 205) cells. The experiment in a line: PCNA and nuclear ERα immunoblot, Colo 205. In kind it is cell-based, human. Also noted: key to Total Nuclear Estrogen Receptor / PCNA accumulation: “+” indicates increase; “−” indicates decrease; “NC” indicates no change. How it is done: as §1
In experiment [5] the test system is GL261 glioma cells. The experiment in a line: PCNA and nuclear ERα immunoblot, GL261. In kind it is cell-based, murine. More on the design: key to Total Nuclear Estrogen Receptor / PCNA accumulation: “+” indicates increase; “−” indicates decrease; “NC” indicates no change. The protocol:
as §1

`C[C@]12CC[C@@H]3c4ccc(O)cc4CC[C@H]3[C@@H]1CC[C@@H]2O` [E2, 17β-estradiol]: the results for the PCNA accumulation result in experiment [1] (PC 3 (Prostate Cancer)), in experiment [4] (Colo205 (Colon Cancer)) and in experiment [5] (GL261 (Glioma)) were “−”, “NC” and “−”, respectively. Also, the “Total Nuclear Estrogen Receptor” value is on record as “NC” in experiment [1] (PC 3 (Prostate Cancer)), “NC” in experiment [4] (Colo205 (Colon Cancer)) and “+” in experiment [5] (GL261 (Glioma)). In addition, the “nuclear ERα” value in experiment [1] (PC3, 10^−9 M E2 or 10^−6 M AFP-peptide, 24 h) is on record as “did not increase nuclear accumulation of ERα”; in experiment [4] (Colo 205, 10^−9 M E2 or 10^−7 M AFP-peptide, 24 h), “did not increase nuclear accumulation of ER”; in experiment [5] (GL261, 10^−9 M E2 or 10^−6 M AFP-peptide, 24 h), “increased nuclear accumulation of ERα”. Further, in experiment [2] (24 hr, C6, F98, GL261, 22B, BHP 2-7, BHP 18-21, HTB 184, MCF-7 and HeLa cells), the “total nuclear accumulation of ERα” value is “increased total nuclear accumulation of estrogen receptor-α (ERα)”. Besides, the “total nuclear ERα” value in experiment [2] (MDA-MB, Colo205, OVCAR-3, LNCaP, and PC3 cells) is reported as “no significant change in total nuclear ERα”; in experiment [2] (melanoma cells) it was “decreased the total nuclear ERα”. Besides, the “MAPK activation (pMAPK) and ER serine phosphorylation (pER), nuclear fraction immunoblot” value in experiment [3] is “activates MAPK, e.g., in T47-D human breast cancer cells and serine-phosphorylates ER”.
